Consider 39 compounds from ChEMBL document CHEMBL1201862, “PubChem BioAssay data set” (2004).

Calls of active or inactive are those of the source. For most assays here, no stated cut-off is given here; in the data, actives have a measured EC50 and inactives only a lower limit. Where only a bound is given, the exact number is not on record here.

A short description of assay [1]: cytotoxicity toward NIH3T3 fibroblasts, dose response, counter-screen, cell-based, ATP luminescence, mouse fibroblasts (AID 2010).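 Further: cells exposed to compound for about 90 hours before reading.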 The format is functional. (In general: The purpose of a counterscreen is to sort out artefacts and off-target activity.)
Assay [2] in a line: HEp-2 cell cytotoxicity, dose response, cytotoxicity control for RSV inhibitor project, HTS (AID 2410). It counts as functional. The settings on record: human respiratory syncytial virus.
The nature of assay [3]: inhibitors of intracellular T. cruzi replication, confirmation, NIH3T3 host cells, beta-gal luminescence (AID 2044).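 Further: intracellular parasites grown in NIH/3T3 mouse fibroblasts as host cells; luminescent beta-galactosidase reporter signal from transgenic T. cruzi replicating inside host cells; inhibitors lower the luminescence signal.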 The format is functional, cell-based.
Assay [4] is described as follows: Luminescence Cell-Based Dose Retest to Confirm Inhibitors of Cancer Stem Cells. [Related pubchem assays (depositor defined):AID2717, AID2721]. It counts as functional. The settings on record: Homo sapiens.
The next assay relates to H4. Nature of the assay: Luminescence Cell-Based Dose Response HTS to Identify Activators of 5'UTR Stem-Loop Driven Prion Protein mRNA Translation in H4 Neuroglioblastoma Cells. [Related pubchem assays: 1829 (Project Summary), 1814 (Primary HTS)]. It counts as functional. The conditions noted are these: Homo sapiens.
Assay [5] can be described thus: Luminescence Cell-Based Dose Response HTS to Identify Activators of Luciferase Translation or Activity in H4 […] Cells. [Related pubchem assays: 1829 (Project Summary), 1814 (Primary HTS)]. It counts as functional.
A short description of assay [6]: Luminescence Cell-Based Dose Confirmation HTS to Identify Activators of 5'UTR Stem-Loop Driven Alpha-Synuclein mRNA Translation in H4 Neuroglioblastoma Cells. [Related pubchem assays: 1829 (Project Summary), 1814 (Primary HTS)]. The format is functional.
The nature of assay [7]: growth suppression of beta-catenin-knockout colon cells, dose response, cell-based, HCT116, human colon tumor (AID 1045).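 Further: HCT116 colon tumor cells with beta catenin knocked out; cells exposed to compound for 60 hours.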 It counts as functional.
Assay [8] in a line: growth suppression of PTEN-null colon cells, dose response, cell-based, HCT116 PTEN knockout (AID 1047).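 Further: HCT116 colon tumor cells with PTEN knocked out; cells exposed to compound for 60 hours before readout; potency for loss of cell viability measured by luminescence.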 It counts as functional.
The nature of assay [9]: inhibitors of firefly luciferase expression or activity, dose response, H4 neuroglioma cells, luminescence (AID 1990). It counts as functional, cell-based.
The nature of assay [10]: inhibitors of SNCA 5'UTR-driven reporter translation, confirmation, H4 neuroglioma cells, luminescence (AID 1988). It counts as functional, cell-based.
The nature of assay [11]: Luminescence Cell-Based Dose Response HTS to Identify Inhibitors of 5'UTR Stem-Loop Driven Prion Protein mRNA Translation in H4 Neuroglioblastoma Cells. [Related pubchem assays: 1827 (Project Summary), 1813 (Primary HTS)]. It counts as functional.
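Wherever AC50 is given: cells exposed to compound for roughly 70 hours or longer before luminescence read.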

One may read the EC50 as the concentration needed to bring the measured effect to its halfway point. Usually CC50 stands for the concentration that lowers cell viability or growth by half. `Cc1ccccc1Nc1nc(N)nc(-c2oc3ccccc3c2C)n1`: the EC50 in assay [1] was > 60 µM (not active); in assay [3], 3.43 µM (active). Besides, the CC50 in [2] was 35.4 µM (active).
Broadly, the AC50 is the midpoint of the concentration-response curve, whichever way the signal moves. `Cc1ccc(-n2nnnc2SC(C(=O)c2c[nH]c3ccccc23)c2ccccc2)cc1` (stereo not drawn): the AC50 in [4] is 2.14 µM (active).
On to `O=C(Cc1ccc(F)cc1)Nc1nnc(SCC(=O)N2CCCCC2)s1`, for which, in assay [4], the AC50 was 24.3 µM (active).
For the compound `O=C(CN1C(=O)S/C(=C\C=C\c2ccccc2)C1=O)N1CCOCC1`, the EC50 is 17.8 µM (active) in the assay on H4, 10.3 µM (active) in assay [5] and 12.2 µM (active) in assay [6].
In the case of `COc1ccc(OC)c(C(=O)/C=C/c2ccccc2C(F)(F)F)c1`, the AC50 in [4] was 5.2 µM (active).
On to `CC(C)(C)NC(=O)C(c1c[nH]c2ccccc12)N(C(=O)Cn1nnc(-c2ccc(Cl)cc2)n1)c1ccccc1F` (stereo not drawn), for which the 50% effective concentration (EC50) in assay [1] is > 60 µM (not active); in assay [3] it was 1.79 µM (active). For the same compound, the CC50 in assay [2] is 25.8 µM (active).
As for `CC(=O)c1cc2c(s1)-c1cc(F)ccc1OC2`, in [2], the 50% cytotoxic concentration (CC50) was 33.3 µM (active).
For `O=C(OC(C(=O)Nc1ccc(Cl)cc1C(F)(F)F)c1ccccc1)c1c(Cl)cccc1Cl` (stereo not drawn), the CC50 in [2] is 22.1 µM (active).
For `O=C(O)c1ccc(Cn2nnc3sc4c(c3c2=O)CCCC4)cc1`, the EC50 in the assay with H4 is 53.1 µM (active); in assay [5], 13.2 µM (active); in assay [6], 13.2 µM (active).
Consider `COc1ccc(-c2sc3ccc(N4CCOCC4)cc3c2C#CC(C)(C)O)cc1`, for which, in assay [4], the AC50 was 0.873 µM (active).
`CCC(C)(C)n1nnnc1C(c1cc2cc(C)cc(C)c2nc1O)N1CCN(C(=O)c2ccco2)CC1` (stereo not drawn): the EC50 was 30.2 µM (active) in [7] and 28.4 µM (active) in assay [8].
`Cc1ccccc1S(=O)(=O)N1[C@@H](c2cccc(Cl)c2)C(C(=O)O)=CC[C@H]1c1ccc(Cl)cc1`: the CC50 in [2] was 15.4 µM (active).
As for `COc1ccc(CCN2C(=S)N(C)C(=O)C2CC(=O)Nc2ccc(OC)cc2)cc1` (stereo not drawn), the AC50 in assay [4] was 5.5 µM (active).
`CCn1c2c(c3ccc(OC)cc31)CCCC2=O`: the CC50 in assay [2] is > 50 µM (active).
As to `CCOC(=O)c1[nH]c2c(c1-c1ccccc1)C(=O)CC(c1ccc(OC)c(OC)c1)C2` (stereo not drawn), the results for the EC50 in assay [7] and in assay [8] were 69.1 µM (active) and 54 µM (active), respectively.
Consider `COc1ccc([N+](=O)[O-])cc1NC(=O)C(C)N(C)Cc1cccc(OC)c1OC` (stereo not drawn), for which, in assay [2], the CC50 was > 50 µM (active).
In the case of `O=C(OCCOc1ccccc1)c1[nH]nc2ccccc12`, the EC50 in the assay with H4 is 98.3 µM (inconclusive); in assay [5], 0.748 µM (active); in assay [6], 3.16 µM (active).
`Cc1ccc(N2C(=O)C3C4C=CC(CC4)C3C2=O)cc1Br` (stereo not drawn): in [4], the AC50 was 0.678 µM (active).
As to `COc1ccccc1C(=O)Nc1ccc2c(c1)nc(CCNC(=O)c1ccco1)n2C`, the EC50 is > 120 µM (not active) in the assay with H4, 81.6 µM (active) in assay [5] and 20.2 µM (active) in assay [6].
As to `Cc1cccc(Cn2cc(/C=C/[N+](=O)[O-])c3ccccc32)c1`, the 50% cytotoxic concentration (CC50) in [2] was 12.7 µM (active). In addition, the half-maximal activity concentration (AC50) in assay [4] is 3.7 µM (active).
Regarding `COc1ccccc1-c1nnc(SCC(=O)Nc2ccccc2)o1`, the EC50 in the assay with H4 is 66.2 µM (inconclusive); in assay [5], 4.37 µM (inconclusive); in assay [6] it was 0.382 µM (active).
As for `O=C(c1cc(C2CC2)nc2ccc(Br)cc12)N1N=C(C(F)F)CC1(O)C(F)F` (stereo not drawn), the EC50 in assay [7] is 13.9 µM (active); in assay [8], 10.5 µM (active).
With `COc1ccc(-c2cc(=O)oc3cc(OCC(=O)c4cccc([N+](=O)[O-])c4)ccc23)cc1`, the EC50 in assay [7] is 21.8 µM (active); in [8] it was 24.9 µM (active).
For the compound `Cc1ccc(Nc2[nH]nc(C)c2[N+](=O)[O-])cc1`, the EC50 with H4 was 0.172 µM (active); in [5] it was 25.3 µM (active); in [6], 44.9 µM (active).
For `Cc1cccc(CNc2ccc(C(CC(N)=O)NC(=O)Cc3cccc4ccccc34)cc2[N+](=O)[O-])c1` (stereo not drawn), the AC50 in assay [4] was 5.85 µM (active).
Take `CCOc1ccccc1NC(=O)c1nnn(-c2ccc3c(c2)OCCO3)c1N`: in [2], the CC50 is 24.3 µM (active).
Take `CC1(C)Cc2c(c(-c3ccco3)nc3sc4c(NCCN5CCOCC5)ncnc4c23)CO1`: the EC50 was 16.2 µM (active) in assay [7] and 8.46 µM (active) in assay [8].
Consider `Cc1ccc(N=NC2=C(O)OC(C)(C)OC2=O)c(C)c1`, for which the EC50 in the assay with H4 is 19.1 µM (active); in assay [5] it was 14.7 µM (active); in [6], 15 µM (active).
Take `O=C(NC1CCCC1)c1ccc(CSCc2ccccc2F)o1`: the EC50 is > 120 µM (not active) in the assay with H4, 16.2 µM (active) in assay [5] and > 120 µM (not active) in assay [6].
Turning to `CCCCn1c(SCC(=O)Nc2cc(NC(=O)c3ccco3)ccc2C)nc2ccccc2c1=O`, the values for the EC50 in assay [7] and in [8] were 19.7 µM (active) and 14.4 µM (active), respectively.
Turning to `Cc1nc2c(sc3nc4c(cc32)COC(C)(C)C4)c(=O)n1Cc1ccccc1`, the EC50 in the assay with H4 was 11.6 µM (active); in assay [5], 7.48 µM (active); in assay [6], 7.25 µM (active).
On to `O=[N+]([O-])c1nn(-c2ccc3c(c2)OCCO3)[n+]([O-])c1NCCC1=CCCCC1`, for which the EC50 in [1] is > 60 µM (not active); in the assay with H4 it was 77.1 µM (active); in assay [3] it was 0.574 µM (active). In assay [4], the AC50 was 52.2 µM (active).
On to `O=C(NC(=S)N1CCCCC1)c1csc([N+](=O)[O-])c1`, for which the EC50 with H4 is > 120 µM (not active); in [5], > 120 µM (not active); in [6] it was 14.9 µM (active).
On to `C=CCc1c(C)nc2c(OC)cccc2c1Cl`, for which the cytotoxic concentration (CC50) in assay [2] is 48.5 µM (active).
With `CSCC(=O)N1CCC(n2nccc2NC(=O)c2ccc3c(c2)OCO3)CC1`, the values for the EC50 (in the assay with H4; in [5]; in [6]) were > 120 µM (not active), 12.3 µM (active) and 13.6 µM (active), respectively.
Turning to `Cc1ccc(C)c(OCCC(=O)N2CCN(S(=O)(=O)c3cc(C)ccc3C)CC2)c1`, the CC50 in assay [2] was 22.3 µM (active). Besides, the half-maximal effective concentration (EC50) in assay [9] was > 120 µM (not active); in assay [10], 97 µM (active); in [11], > 120 µM (not active).
Take `O=C(Nc1ccc(Cn2cccn2)cc1)c1ccc(COc2cccc(Br)c2)cc1`: the AC50 in [4] is < 0.16 µM (active).
With `CN(CC(=O)Nc1ccc(Cl)c(C(F)(F)F)c1)C(=O)Cc1c[nH]c2ccccc12`, the CC50 in [2] is 16.7 µM (active).
With `CC(/C=N/NC(=O)c1cc(-c2ccc(C)s2)[nH]n1)=C\c1ccccc1`, in assay [4], the concentration at half-maximal activity (AC50) is 0.501 µM (active).
